According to US6344439B1, “Agents for promoting bone formation” (priority 1995, dated 2002):
Like-named read-outs stand apart in the source and are kept apart here.

Columns and labels:
[1] = tested on: osteoblasts of rat fetal calvaria; type: cell-based; settings: for Alkaline phosphatase activity: mean ± SD n=4; for Effect on alkaline phosphatase activity (in words): at 10^−8M
[2] = tested on: osteoblasts of rat fetal calvaria; settings: for Calcified area / No. of bone tuberculum: mean ± SD n=4; for No. of bone tuberculum: Tables 1-2 experiment (non-treated 146.5 ± 10.9)
[3] = 10^−8M, Table 1 experiment (non-treated 0.044 ± 0.014)
[4] = 10^−8M, Table 3 experiment (non-treated 0.084 ± 0.008)
[5] = 10^−8M, Table 3 experiment (non-treated 4.46 ± 0.83)

Compound: C[C@@H]1C[C@H]2[C@@H]3CCC4=CC(=O)C=C[C@]4(C)[C@@]3(F)[C@@H](O)C[C@]2(C)[C@@]1(O)C(=O)CO [Dexamethasone, reference compound]
- Alkaline phosphatase activity [1, 3]: 0.181 ± 0.018 μM/min/well
- Alkaline phosphatase activity [1, 4]: 0.143 ± 0.015 μM/min/well
- Calcified area [2, 5]: 13.82 ± 1.20 mm^2/well
- Calcified area ([2]; 10^−8M, Table 4 experiment (non-treated 2.56 ± 0.11)): 12.17 ± 1.05 mm^2/well
- No. of bone tuberculum ([2]; 10^−8M): 307.3 ± 34.1 per well

Compound: Gly-Arg-Gly-Asp-Ser (GRGDS) [reference compound]
- No. of bone tuberculum ([2]; 10^−4M): 168.3 ± 17.1 per well
- No. of bone tuberculum ([2]; 10^−6M): 166.5 ± 10.6 per well
- Effect on calcification (in words) ([2]; at 10^−4M): completely prevent
- Effect on calcification (in words) ([2]; at 10^−6M): promote
- Effect on the number of bone tuberculum (in words) ([2]; at 10^−6M and 10^−4M ("these concentrations")): tendency to be increased

Compound: Kistrin
- Alkaline phosphatase activity ([1]; 10^−5M, Table 3 experiment (non-treated 0.084 ± 0.008)): 0.085 ± 0.009 μM/min/well
- Alkaline phosphatase activity ([1]; 10^−6M, Table 1 experiment (non-treated 0.044 ± 0.014)): 0.040 ± 0.003 μM/min/well
- Alkaline phosphatase activity ([1]; 10^−6M, Table 3 experiment (non-treated 0.084 ± 0.008)): 0.119 ± 0.008 μM/min/well
- Alkaline phosphatase activity ([1]; 10^−7M, Table 1 experiment (non-treated 0.044 ± 0.014)): 0.051 ± 0.007 μM/min/well
- Alkaline phosphatase activity ([1]; 10^−7M, Table 3 experiment (non-treated 0.084 ± 0.008)): 0.133 ± 0.006 μM/min/well
- Alkaline phosphatase activity [1, 3]: 0.067 ± 0.005 μM/min/well
- Alkaline phosphatase activity [1, 4]: 0.126 ± 0.006 μM/min/well
- Alkaline phosphatase activity ([1]; 10^−9M, Table 1 experiment (non-treated 0.044 ± 0.014)): 0.051 ± 0.008 μM/min/well
- Effect on alkaline phosphatase activity (in words) [1]: promote
- Effect on alkaline phosphatase activity (in words) ([1]; listed as kistrin): Promoted
- Calcified area ([2]; 10^−5M, Table 3 experiment (non-treated 4.46 ± 0.83)): 4.54 ± 0.88 mm^2/well
- Calcified area ([2]; 10^−6M, Table 3 experiment (non-treated 4.46 ± 0.83)): 7.93 ± 1.37 mm^2/well
- No. of bone tuberculum ([2]; 10^−6M): 147.8 ± 14.2 per well
- Calcified area ([2]; 10^−7M, Table 3 experiment (non-treated 4.46 ± 0.83)): 11.25 ± 1.04 mm^2/well
- No. of bone tuberculum ([2]; 10^−7M): 189.5 ± 16.3 per well
- Calcified area [2, 5]: 9.87 ± 1.04 mm^2/well
- No. of bone tuberculum ([2]; 10^−8M): 161.8 ± 19.2 per well
- No. of bone tuberculum ([2]; 10^−9M): 153.8 ± 12.3 per well
- Effect on calcification (in words) ([2]; at 10^−6M): prevented completely
- Effect on the number of bone tuberculum (in words) ([2]; at 10^−6M): not observed to affect
- Effect on calcification (in words) ([2]; at 10^−7 and 10^−8M): promote
- Effect on the number of bone tuberculum (in words) ([2]; at 10^−7 and 10^−8M): promote
